Source: patent US11173145B2, “Compounds useful as inhibitors of indoleamine 2,3-dioxygenase and/or tryptophan dioxygenase” (Board of Regents, The University of Texas System, priority 2017, dated 2021)
pIC50: −log10 of the molar value.

How the values were obtained:
IDO1 = target: T1, IDO1 (Homo sapiens, UniProt P14902); experiment: IDO1 cell-based assay (HeLa cells, IFNgamma-induced, N-formylkynurenine/L-tryptophan by RFMS); details: 10 ng/mL IFNgamma, 24 hours
T1 construct: endogenous in cells; host or cells: HeLa cells (ATCC), IFNgamma-induced
In short: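 N-formylkynurenine and tryptophan peak areas in media measured by RFMS (C18, isocratic, d-Trp standard), giving IC50 values by regression. Source: HeLa cells incubated 24 h with IFNgamma (10 ng/mL) plus test compound at 0.5% DMSO; parallel CellTiter-Glo viability read.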

mouse IDO1 = target: T2, mouse IDO1 (Mus musculus, UniProt P28776); experiment: Mouse IDO1 cell-based assay (PANC02 cells, mouse IFNgamma-induced, N-formylkynurenine/L-tryptophan by RFMS); details: 30 ng/mL mouse IFNgamma, 48 hours
T2 construct: The murine PANC02 pancreatic ductal adenocarcinoma cell line was routinely maintained in DMEM media; endogenous in cells; host or cells: PANC02 murine pancreatic ductal adenocarcinoma cells, induced with mouse IFNgamma
Protocol: The murine PANC02 pancreatic ductal adenocarcinoma cell line was routinely maintained in DMEM media containing 10% FBS. Cells (3,000/well) were seeded onto a 384 well plate in 50 μl of media and incubated at 37° C., 5% CO2 overnight. Cell media was aspirated, fresh media containing 30 ng/mL mouse IFNgamma (Gibco Life Technologies, cat #PMC4031) was added, and cells were incubated in absence or presence of various concentrations of compounds (final 0.5% DMSO) for 48 hours at 37° C., 5% CO2. Aliquots of the cell conditioned media was removed from the cell plate, and mixed with equal volume of 200 mM ZnSO4 to precipitate media containing protein. Two volumes of acetonitrile were added by mixing, and samples were then centrifuged at 2250G for 20 minutes at 4° C. Aliquots of the supernatant were diluted 1:10 in 0.1% formic acid containing 3 μM of deuterated Tryptophan as an internal standard.
Samples were analyzed via RFMS to quantify N-Formyl Kynurenine (AUC) and L-tryptophan (AUC). A C18 cartridge was used with mobile phases of 0.1% Formic Acid and 80% ACN/0.1% Formic Acid under isocratic conditions. Dose-response curves were analyzed using IC50 regression curve fitting (GeneData Screener). Curves were plotted as percent of control and normalized by high controls without inhibitor (100%), and low controls (0%) containing 1 μM of epacadostat. Cell viability was also assessed using the Cell Titer Glo Kit (Promega) following manufacture recommendation.

T1 sequence (P14902 whole entry): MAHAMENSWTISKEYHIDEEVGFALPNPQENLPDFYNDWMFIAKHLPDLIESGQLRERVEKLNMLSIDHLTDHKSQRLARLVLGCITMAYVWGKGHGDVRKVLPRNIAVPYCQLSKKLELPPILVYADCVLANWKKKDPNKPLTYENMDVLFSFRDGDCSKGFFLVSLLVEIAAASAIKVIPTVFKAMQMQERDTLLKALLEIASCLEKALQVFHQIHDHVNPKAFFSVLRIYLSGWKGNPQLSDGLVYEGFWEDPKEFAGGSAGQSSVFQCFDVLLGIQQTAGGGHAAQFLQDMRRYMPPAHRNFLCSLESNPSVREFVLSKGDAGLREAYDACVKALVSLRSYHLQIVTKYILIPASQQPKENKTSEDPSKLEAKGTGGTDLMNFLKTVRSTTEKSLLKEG
T2 sequence (P28776 whole entry): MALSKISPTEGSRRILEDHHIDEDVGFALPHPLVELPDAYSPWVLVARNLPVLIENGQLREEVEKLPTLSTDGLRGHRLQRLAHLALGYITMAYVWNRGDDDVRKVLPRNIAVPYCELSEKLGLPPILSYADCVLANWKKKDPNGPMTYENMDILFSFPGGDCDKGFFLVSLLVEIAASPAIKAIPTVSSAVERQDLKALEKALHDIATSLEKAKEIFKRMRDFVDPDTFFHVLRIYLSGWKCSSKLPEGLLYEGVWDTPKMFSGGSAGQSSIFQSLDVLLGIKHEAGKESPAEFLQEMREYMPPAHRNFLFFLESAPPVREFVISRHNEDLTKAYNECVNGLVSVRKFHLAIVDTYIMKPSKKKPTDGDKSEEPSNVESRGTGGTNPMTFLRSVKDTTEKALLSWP

Row | SMILES | pIC50 (IDO1) | pIC50 (mouse IDO1)
1 | C[C@H](NC(=O)c1ccc(C#N)cc1)[C@H]1[C@@H]2C[C@@H](Oc3ncnc4ccc(F)cc34)C[C@@H]21 [Compound 130, 4-cyano-N-((R)-1-((1R,3S,5S,6r)-3-((6-fluoroquinazolin-4-yl)oxy)bicyclo[3.1.0]hexan-6-yl)ethyl)benzamide] | > 6.70 | > 6.30
2 | CCC(NC(=O)c1ccc(Cl)cc1)[C@H]1[C@@H]2C[C@@H](NC(=O)c3ccc(OC)cn3)C[C@@H]21 (stereo partly drawn) [Compound 164, N-((1R,3s,5S,6r)-6-(1-(4-chlorobenzamido)propyl)bicyclo[3.1.0]hexan-3-yl)-5-methoxypicolinamide] | 5.70 to 6.70 | 5.70 to 6.30
3 | CCC(NC(=O)c1ccc(Cl)cc1)[C@H]1[C@@H]2C[C@@H](n3ncc4c(F)cccc43)C[C@@H]21 (stereo partly drawn) [Compound 210, 4-chloro-N-(1-((1R,3s,5S,6r)-3-(4-fluoro-1H-indazol-1-yl)bicyclo[3.1.0]hexan-6-yl)propyl)benzamide] | > 6.70 | 5.70 to 6.30
4 | CCC(NC(=O)c1ccc(Cl)cc1)[C@H]1[C@@H]2C[C@@H](n3cnc(-c4ccccc4)c3)C[C@@H]21 (stereo partly drawn) [Compound 200, 4-chloro-N-(1-((1R,3s,5S,6r)-3-(4-phenyl-1H-imidazol-1-yl)bicyclo[3.1.0]hexan-6-yl)propyl)benzamide] | > 6.70 | 5.70 to 6.30
5 | CCC(NC(=O)c1ccc(Cl)cc1)[C@H]1[C@@H]2C[C@@H](NC(=O)c3ncc(F)cc3F)C[C@@H]21 (stereo partly drawn) [Compound 171, N-((1R,3s,5S,6r)-6-(1-(4-chlorobenzamido)propyl)bicyclo[3.1.0]hexan-3-yl)-3,5-difluoropicolinamide] | > 6.70 | 5.70 to 6.30
6 | CCC(NC(=O)c1ccc(Cl)cc1)[C@H]1[C@@H]2C[C@@H](NC(=O)N(C)c3ccccn3)C[C@@H]21 (stereo partly drawn) [Compound 189, 4-chloro-N-(1-((1R,3s, 5S, 6r)-3-(3-methyl-3-(pyridin-2-yl)ureido)bicyclo[3.1.0]hexan-6-yl)propyl)benzamide] | > 6.70 | 5.70 to 6.30
7 | CCC(NC(=O)c1ccc(Cl)cc1)[C@H]1[C@@H]2C[C@@H](n3ncc(-c4ccccc4)n3)C[C@@H]21 (stereo partly drawn) [Compound 204, 4-chloro-N-(1-((1R,3s,5S,6r)-3-(4-phenyl-2H-1,2,3-triazol-2-yl)bicyclo[3.1.0]hexan-6-yl)propyl)benzamide] | > 6.70 | 5.70 to 6.30
8 | CCC(NC(=O)c1ccc(Cl)cc1)[C@H]1[C@@H]2C[C@@H](NC(=O)c3nccc(C(F)(F)F)c3Cl)C[C@@H]21 (stereo partly drawn) [Compound 158, 3-chloro-N-((1R,3s,5S,6r)-6-(1-(4-chlorobenzamido)propyl)bicyclo[3.1.0]hexan-3-yl)-4-(trifluoromethyl)picolinamide] | > 6.70 | 5.70 to 6.30
9 | CCC(NC(=O)c1ccc(Cl)cc1)[C@H]1[C@@H]2C[C@@H](NC(C(=O)NC)c3ccccc3)C[C@@H]21 (stereo partly drawn) [Compound 224, 4-chloro-N-(1-((1R,3s,5S,6r)-3-((2-(methylamino)-2-oxo-1-phenylethyl)amino)bicyclo[3.1.0]hexan-6-yl)propyl)benzamide] | 5.30 to 5.70 | < 5.30
10 | CCC(NC(=O)c1ccc(Cl)cc1)[C@H]1[C@@H]2C[C@@H](Nc3ccccn3)C[C@@H]21 (stereo partly drawn) [Compound 226, 4-chloro-N-(1-((1R,3s,5S,6r)-3-(pyridin-2-ylamino)bicyclo[3.1.0]hexan-6-yl)propyl)benzamide] | > 6.70 | > 6.30
11 | CCC(NC(=O)c1ccc(Cl)cc1)[C@H]1[C@@H]2C[C@@H](n3c(=O)[nH]c4cc(F)ccc43)C[C@@H]21 (stereo partly drawn) [Compound 192, 4-chloro-N-(1-((1R,3s,5S,6r)-3-(5-fluoro-2-oxo-2,3-dihydro-1H-benzo[d]imidazol-1-yl)bicyclo[3.1.0]hexan-6-yl)propyl)benzamide] | 5.70 to 6.70 | 5.70 to 6.30
12 | CCC(NC(=O)c1ccc(Cl)cc1)[C@H]1[C@@H]2C[C@@H](n3ccnc3C)C[C@@H]21 (stereo partly drawn) [Compound 201, 4-chloro-N-(1-((1R,3s,5S,6r)-3-(2-methyl-1H-imidazol-1-yl)bicyclo[3.1.0]hexan-6-yl)propyl)benzamide] | > 6.70 | 5.30 to 5.70
13 | CCC(NC(=O)c1ccc(Cl)cc1)[C@H]1[C@@H]2C[C@@H](n3nc4ccc(Br)cc4n3)C[C@@H]21 (stereo partly drawn) [Compound 179, N-(1-((1R,3s,5S,6r)-3-(5-bromo-2H-benzo[d][1,2,3]triazol-2-yl)bicyclo[3.1.0]hexan-6-yl)propyl)-4-chlorobenzamide] | > 6.70 | 5.30 to 5.70
14 | CCC(NC(=O)c1ccc(Cl)cc1)[C@H]1[C@@H]2C[C@H](NC(=O)c3ncccc3F)C[C@@H]21 (stereo partly drawn) [Compound 220, N-((1R,3r,5S,6r)-6-(1-(4-chlorobenzamido)propyl)bicyclo[3.1.0]hexan-3-yl)-3-fluoropicolinamide] | > 6.70 | > 6.30
15 | CCC(NC(=O)c1ccc(Cl)cc1)[C@H]1[C@@H]2C[C@@H](n3cccc4ncnc3-4)C[C@@H]21 (stereo partly drawn) [Compound 182, N-(1-((1R,3s,5S,6r)-3-(4H-imidazo[4,5-b]pyridin-4-yl)bicyclo[3.1.0]hexan-6-yl)propyl)-4-chlorobenzamide] | 5.70 to 6.70 | < 5.30
16 | CCC(NC(=O)c1ccc(Cl)cc1)[C@H]1[C@@H]2C[C@@H](NC(=O)c3ncccc3F)C[C@@H]21 (stereo partly drawn) [Compound 188, N-((1R,3s,5S,6r)-6-(1-(4-chlorobenzamido)propyl)bicyclo[3.1.0]hexan-3-yl)-3-fluoropicolinamide] | > 6.70 | 5.70 to 6.30
17 | CCC(NC(=O)c1ccc(Cl)cc1)[C@H]1[C@@H]2C[C@@H](n3cnc4ccncc43)C[C@@H]21 (stereo partly drawn) [Compound 197, N-(1-((1R,3s,5S,6r)-3-(3H-imidazo[4,5-c]pyridin-3-yl)bicyclo[3.1.0]hexan-6-yl)propyl)-4-chlorobenzamide] |  | < 5.30
18 | CCC(NC(=O)c1ccc(Cl)cc1)[C@H]1[C@@H]2C[C@@H](n3cnc4ccc(F)cc43)C[C@@H]21 (stereo partly drawn) [Compound 125] |  | > 6.30

Second part, the molecule after the results:

Row | pIC50 (IDO1) | pIC50 (mouse IDO1) | SMILES
19 | < 5.30 | < 5.30 | O=C(Nc1ccc(Cl)cc1)[C@@H]1[C@@H]2CN(c3ncnc4ccc(F)cc34)C[C@@H]21 [Compound 250, (1R,5S,6s)-N-(4-chlorophenyl)-3-(6-fluoroquinazolin-4-yl)-3-azabicyclo[3.1.0]hexane-6-carboxamide]
20 | > 6.70 | 5.70 to 6.30 | CCC(NC(=O)c1ccc(Cl)cc1)[C@H]1[C@@H]2C[C@@H](n3cnc(C4CC4)c3)C[C@@H]21 (stereo partly drawn) [Compound 261, 4-chloro-N-(1-((1R,3s, 5S, 6r)-3-(4-cyclopropyl-1H-imidazol-1-yl)bicyclo[3.1.0]hexan-6-yl)propyl)benzamide]
21 | < 5.30 | < 5.30 | CCC(NC(=O)c1ccc(Cl)cc1)[C@H]1[C@@H]2C[C@@H](n3cc(N4C(=O)c5ccccc5C4=O)nn3)C[C@@H]21 (stereo partly drawn) [Compound 232, 4-chloro-N-(1-((1R,3s,5S,6r)-3-(4-(1,3-dioxoisoindolin-2-yl)-1H-1,2,3-triazol-1-yl)bicyclo[3.1.0]hexan-6-yl)propyl)benzamide]
22 |  | > 6.30 | CC[C@H](NC(=O)c1ccc(Cl)cc1)[C@H]1[C@@H]2C[C@@H](n3cnc4ccc(F)cc43)C[C@@H]21 [Compound 248, 4-chloro-N—((S)-1-((1R,3S,5S,6r)-3-(6-fluoro-1H-benzo[d]imidazol-1-yl)bicyclo[3.1.0]hexan-6-yl)propyl)benzamide]
23 | > 6.70 | > 6.30 | CCC(NC(=O)c1ccc(Cl)cc1)[C@H]1[C@@H]2C[C@@H](n3cc(N(C)C)nn3)C[C@@H]21 (stereo partly drawn) [Compound 238, 4-chloro-N-(1-((1R,3s,5S,6r)-3-(4-(dimethylamino)-1H-1,2,3-triazol-1-yl)bicyclo[3.1.0]hexan-6-yl)propyl)benzamide]
24 | > 6.70 | 5.70 to 6.30 | CCC(NC(=O)c1ccc(Cl)cc1)[C@H]1[C@@H]2C[C@@H](Nc3ncc(F)cc3[N+](=O)[O-])C[C@@H]21 (stereo partly drawn) [Compound 236, 4-chloro-N-(1-((1R,3s,5S,6r)-3-((5-fluoro-3-nitropyridin-2-yl)amino)bicyclo[3.1.0]hexan-6-yl)propyl)benzamide]
25 | 5.70 to 6.70 | 5.30 to 5.70 | CCC(NC(=O)c1ccc(Cl)cc1)[C@@H]1[C@H]2C=C(c3ncnc4cc(F)ccc34)C[C@H]21 (stereo partly drawn) [Compound 255, 4-chloro-N-(1-((1R,5R,6S)-3-(7-fluoroquinazolin-4-yl)bicyclo[3.1.0]hex-2-en-6-yl)propyl)benzamide]
26 |  | > 6.30 | CC[C@@H](NC(=O)c1ccc(Cl)cc1)[C@H]1[C@@H]2C[C@@H](n3cnc4ccc(F)cc43)C[C@@H]21 [Compound 247, 4-chloro-N—((R)-1-((1R,3S,5S, 6r)-3-(6-fluoro-1H-benzo[d]imidazol-1-yl)bicyclo[3.1.0]hexan-6-yl)propyl)benzamide]
